Results published in article PMC11697714, “Strigolactones initiate the formation of haustorium-like structures in Castilleja” (iScience, 2024).
Read-outs that look alike come from different tables or passages of the source. Values belong to the molecule of their own block, whether it stands above or below them.

Assays:
KAI2d15 [1] = biological target: T1, KAI2d15 (Castilleja foliolosa, UniProt A0ABD3DF95); experiment: differential scanning fluorimetry, SYPRO Orange; assay type: binding; conditions: 20 mM Tris-HCl, 30 mM NaCl, 1 mM TCEP, pH 7.7
T1 construct: GST fusion (pGEX-4T-1) in E. coli BL21, GST cut with HRV 3C leaving N-terminal Gly-Pro; synthetic codon-optimised gene; catalytic triad S95, D217, H246; entrance M142, M153, M157; genome GenBank JAVIJP000000000
T1 sequence (A0ABD3DF95 entry or part of it): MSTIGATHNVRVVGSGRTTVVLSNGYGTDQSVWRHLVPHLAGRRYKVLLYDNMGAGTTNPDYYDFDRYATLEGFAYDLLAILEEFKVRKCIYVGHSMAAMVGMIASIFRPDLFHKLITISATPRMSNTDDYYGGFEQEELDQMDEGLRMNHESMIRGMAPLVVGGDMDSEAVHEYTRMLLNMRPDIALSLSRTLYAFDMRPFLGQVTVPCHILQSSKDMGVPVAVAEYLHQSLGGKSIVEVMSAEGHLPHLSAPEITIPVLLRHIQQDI

KAI2d15 [2] = biological target: T2, KAI2d15 (Castilleja foliolosa, UniProt A0ABD3DF95, M143V/M154V/M158V, form not given); experiment: differential scanning fluorimetry, SYPRO Orange; assay type: binding; conditions: 20 mM Tris-HCl, 30 mM NaCl, 1 mM TCEP, pH 7.7
T2 construct: GST fusion (pGEX-4T-1) in E. coli BL21, GST cut with HRV 3C leaving N-terminal Gly-Pro; synthetic codon-optimised gene; catalytic triad S95, D217, H246; entrance M142, M153, M157; genome GenBank JAVIJP000000000
T2 sequence (A0ABD3DF95 entry or part of it M143V/M154V/M158V, form open): as the sequence (A0ABD3DF95 entry or part of it) above, with M143V, M154V, M158V counted along it

KAI2d8 = biological target: T3, KAI2d8 (Castilleja foliolosa, UniProt A0ABD3DF32); experiment: differential scanning fluorimetry, SYPRO Orange; assay type: binding; conditions: 20 mM Tris-HCl, 30 mM NaCl, 1 mM TCEP, pH 7.7
T3 construct: GST fusion (pGEX-4T-1) in E. coli BL21, GST cut with HRV 3C leaving N-terminal Gly-Pro; synthetic codon-optimised gene; genome GenBank JAVIJP000000000
T3 sequence (A0ABD3DF32 1-275): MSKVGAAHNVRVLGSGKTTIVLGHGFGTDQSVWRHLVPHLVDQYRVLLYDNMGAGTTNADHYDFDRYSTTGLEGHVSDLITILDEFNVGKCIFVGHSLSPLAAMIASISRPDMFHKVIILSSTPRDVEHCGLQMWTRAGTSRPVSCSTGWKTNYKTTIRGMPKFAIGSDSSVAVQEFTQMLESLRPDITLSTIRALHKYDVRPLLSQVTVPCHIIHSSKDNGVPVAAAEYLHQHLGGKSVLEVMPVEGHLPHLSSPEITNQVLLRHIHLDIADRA

KAI2d15 [3] = biological target: T2, KAI2d15; experiment: fluorescent hydrolysis, Michaelis-Menten; assay type: biochemical
KAI2d14 = system: T4, KAI2d14; experiment: fluorescent hydrolysis, Michaelis-Menten; assay type: biochemical, Castilleja foliolosa
T4 construct: GST fusion (pGEX-4T-1) in E. coli BL21, GST cut with HRV 3C leaving N-terminal Gly-Pro; synthetic codon-optimised gene; genome GenBank JAVIJP000000000
Source text: fluorescent hydrolysis, Michaelis-Menten on KAI2d14 | Michaelis-Menten experiments using the large fluorescent strigolactone analog Yoshimulactone Green (YLG)

KAI2d15 [4] = biological target: T1, KAI2d15; experiment: fluorescent hydrolysis, Michaelis-Menten; assay type: biochemical
KAI2i1 = system: T5, KAI2i1; experiment: fluorescent hydrolysis, Michaelis-Menten; assay type: biochemical, Castilleja foliolosa
T5 construct: GST fusion (pGEX-4T-1) in E. coli BL21, GST cut with HRV 3C leaving N-terminal Gly-Pro; synthetic codon-optimised gene; genome GenBank JAVIJP000000000
Source text: fluorescent hydrolysis, Michaelis-Menten on KAI2i1 | Michaelis-Menten experiments using the large fluorescent strigolactone analog Yoshimulactone Green (YLG)

[5] = substrate: CCOC(=O)c1ccccc1-c1c2ccc(=O)cc-2oc2cc(OC3C=C(C)C(=O)O3)ccc12; experiment: fluorescent hydrolysis, Michaelis-Menten; assay type: biochemical, Castilleja foliolosa
Source text: fluorescent hydrolysis, Michaelis-Menten on KAI2d9 | Michaelis-Menten experiments using the large fluorescent strigolactone analog Yoshimulactone Green (YLG)

[6] = substrate: CCOC(=O)c1ccccc1-c1c2ccc(=O)cc-2oc2cc(OC3C=C(C)C(=O)O3)ccc12; experiment: fluorescent hydrolysis, Michaelis-Menten; assay type: biochemical, Castilleja foliolosa; remark: listed apart in the source
Source text: fluorescent hydrolysis, Michaelis-Menten on KAI2d8 | Michaelis-Menten experiments using the large fluorescent strigolactone analog Yoshimulactone Green (YLG)

Molecule: CC1=C[C@H](O/C=C2/C(=O)O[C@@H]3C4=C(CCCC4(C)C)C[C@H]23)OC1=O [5-deoxystrigol]
- differential scanning fluorimetry, SYPRO Orange (KAI2d15 [1]): DSF experiments with four different strigolactone molecules, testing both the variant and the wild-type protein
- differential scanning fluorimetry, SYPRO Orange (KAI2d15 [2]): mutant protein showed destabilization at lower ligand concentrations when GR24 or 5-deoxystrigol were present

Molecule: CC1=C[C@H](O/C=C2/C(=O)O[C@@H]3c4ccccc4C[C@H]23)OC1=O [GR24 5DO]
- differential scanning fluorimetry, SYPRO Orange (KAI2d15 [2]; printed only as GR24): mutant protein showed destabilization at lower ligand concentrations when GR24 or 5-deoxystrigol were present
- differential scanning fluorimetry, SYPRO Orange (KAI2d8): A weaker but discernible destabilization was noted with KAI2d8

- Km (KAI2d15 [3]): 2.4 µM
- Km (KAI2d14): 1.1 ± 0.3 µM
- Km (KAI2d15 [4]): 0.8 µM
- Km (KAI2i1): 3.1 ± 0.7 µM
Molecule: CCOC(=O)c1ccccc1-c1c2ccc(=O)cc-2oc2cc(OC3C=C(C)C(=O)O3)ccc12 (stereo not shown) [Yoshimulactone Green]

Molecule: CC1=CC(OC=C2C(=O)OC3C4=C(CCCC4(C)C)C(O)C23)OC1=O (stereo not shown) [orobanchol]
- differential scanning fluorimetry, SYPRO Orange (KAI2d15 [1]): wild-type protein destabilized at lower concentrations of strigol or orobanchol
- differential scanning fluorimetry, SYPRO Orange (KAI2d15 [2]): DSF experiments with four different strigolactone molecules, testing both the variant and the wild-type protein

Molecule: CC1=C[C@H](O/C=C2/C(=O)O[C@@H]3C4=C(C[C@H]23)[C@@H](O)CCC4(C)C)OC1=O [strigol]
- differential scanning fluorimetry, SYPRO Orange (KAI2d15 [1]): wild-type protein destabilized at lower concentrations of strigol or orobanchol
- differential scanning fluorimetry, SYPRO Orange (KAI2d15 [2]): DSF experiments with four different strigolactone molecules, testing both the variant and the wild-type protein

B1: KAI2d9 (Castilleja foliolosa) (protein)
chain: MSTVGSAHNVQVIGSGETTVVLGHGYGTDQSVWKNLVPHLVDQYKVLLFDNMGAGTTNPDYFDFERYSTLEGYAYDLIAILEEFNVHKCIYVGHSMSAIAGAIASIFRPDLFHKLIMICASPRLTNTGDYYGGFKQEELEQLSGAMESNFQSMAMGRAPLVIGSDLESEAVQEYCRTLFNMRPDISFSVVRTIFALDMRPFLPQVTVPCHIIQSSKDIYVPLSVGEYLHQNLGGKSIVEVMPTQGHLPHLSAPEVTNPVLLRHIQQDIADA
notes: GST fusion (pGEX-4T-1) in E. coli BL21, GST cut with HRV 3C leaving N-terminal Gly-Pro; synthetic codon-optimised gene; genome GenBank JAVIJP000000000
- Km [5]: 0.5 ± 0.1 µM
- kcat [5]: 600 ± 49 s⁻¹

B2: KAI2d8 (Castilleja foliolosa) (protein)
chain: MSKVGAAHNVRVLGSGKTTIVLGHGFGTDQSVWRHLVPHLVDQYRVLLYDNMGAGTTNADHYDFDRYSTTGLEGHVSDLITILDEFNVGKCIFVGHSLSPLAAMIASISRPDMFHKVIILSSTPRDVEHCGLQMWTRAGTSRPVSCSTGWKTNYKTTIRGMPKFAIGSDSSVAVQEFTQMLESLRPDITLSTIRALHKYDVRPLLSQVTVPCHIIHSSKDNGVPVAAAEYLHQHLGGKSVLEVMPVEGHLPHLSSPEITNQVLLRHIHLDIADRA
notes: as for B1
- Km [6]: 6.6 ± 0.2 µM
- kcat [6]: 2780 ± 193 s⁻¹
